The record followed here is patent US9808003B2, “Herbicidally active 2-(substituted-phenyl)-cyclopentane-1,3-dione compounds and derivatives thereof” (Syngenta Limited, priority 2013, dated 2017).

Structures are written as SMILES.

Common to all, as to test: Test 1A glasshouse assay, post-emergence herbicidal activity
Common to all, as to type: in vivo

One assay has as its system Avena fatua (AVEFA). The settings on record: application rate 250 g/ha, 13 days after application, visual (100%=total damage; 0%=no damage); for pest or weed control at 250 g/ha: Avena fatua, 312 h, read-out: Post-emergence Herbicidal Activity (% Phytotoxicity) AVEFA. The method, then:
(§1) Seeds of a variety of test species were sown in standard soil in pots. After cultivation for one day (pre-emergence) or after 8 days cultivation (post-emergence) under controlled conditions in a glasshouse (at 24/16° C., day/night; 14 hours light; 65% humidity), the plants were sprayed with an aqueous spray solution derived from the formulation of the technical active ingredient in acetone/water (50:50) solution containing 0.5% Tween 20 (polyoxyethelyene sorbitan monolaurate, CAS RN 9005-64-5). The test plants were then grown under controlled conditions in a glasshouse (at 24/16° C., day/night; 14 hours light; 65% humidity) and watered twice daily. 13 days after application of the test herbicide, for pre- and post-emergence, the test was evaluated visually for percentage phytotoxicity to the plant (where 100%=total damage to plant; 0%=no damage to plant).
(§2) Lolium perenne (LOLPE), Alopecurus myosuroides (ALOMY), Echinochloa crus-galli (ECHCG), and Avena fatua (AVEFA); these are all grassy monocotyledonous weeds.

The subject of assay [1] is Alopecurus myosuroides (ALOMY). The settings on record: application rate 250 g/ha, 13 days after application, visual (100%=total damage; 0%=no damage); for pest or weed control at 250 g/ha: Alopecurus myosuroides, 312 h, read-out: Post-emergence Herbicidal Activity (% Phytotoxicity) ALOMY. The method, then:
as §1, §2

The subject of the next assay is Lolium perenne (LOLPE). The settings on record: application rate 250 g/ha, 13 days after application, visual (100%=total damage; 0%=no damage); for pest or weed control at 250 g/ha: Lolium perenne, 312 h, read-out: Post-emergence Herbicidal Activity (% Phytotoxicity) LOLPE. As for the experimental part: as §1, §2
For assay [2], the system named is Echinochloa crus-galli (ECHCG). The conditions noted are these: application rate 250 g/ha, 13 days after application, visual (100%=total damage; 0%=no damage); for pest or weed control at 250 g/ha: Echinochloa crus-galli, 312 h, read-out: Post-emergence Herbicidal Activity (% Phytotoxicity) ECHCG. As for the experimental part: as §1, §2

Take `Cc1cc(C)c(C2C(=O)CC(CCNC(=O)c3ncc(C(F)(F)F)cc3Cl)C2=O)c(C)c1` (centres unmarked) [Compound A43]: the pest or weed control at 250 g/ha (in the assay with Avena fatua (AVEFA); in assay [1]; with Lolium perenne (LOLPE); in assay [2]) was 100% each time.
As for `Cc1cc(C)c(C2C(=O)CC(CCNC(=O)c3ncccc3Cl)C2=O)c(C)c1` (centres unmarked) [Compound A44, 3-chloro-N-[2-[2,4-dioxo-3-(2,4,6-trimethylphenyl)cyclopentyl]ethyl]pyridine-2-carboxamide], the pest or weed control at 250 g/ha in the assay on Avena fatua (AVEFA) was 90%; in assay [1], 100%; with Lolium perenne (LOLPE), 100%; in assay [2], 100%.
As for `Cc1cc(C)c(C2C(=O)CC(CCNC(=O)Cc3ccccn3)C2=O)c(C)c1` (centres unmarked) [Compound A45], the pest or weed control at 250 g/ha amounted to 80% in the assay on Avena fatua (AVEFA), 50% in assay [1], 80% with Lolium perenne (LOLPE) and 60% in assay [2].
For the molecule `Cc1cc(C)c(C2C(=O)CC(CCNC(=O)c3ncccc3Br)C2=O)c(C)c1` (centres unmarked) [Compound A46], the pest or weed control at 250 g/ha in the assay with Avena fatua (AVEFA) amounted to 70%; in assay [1], 60%; in the assay with Lolium perenne (LOLPE) it was 100%; in assay [2], 90%.
Taken in the same sequence, the figures for `Cc1cc(C)c(C2C(=O)CC(CCNC(=O)c3cccc(Cl)n3)C2=O)c(C)c1` (centres unmarked) [Compound A47] were 90%, 80%, 100% and 100%.
On the same counts, the results for `Cc1cc(C)c(C2C(=O)CC(CCNC(=O)c3cccc(Br)n3)C2=O)c(C)c1` (centres unmarked) [Compound A48] are 90%, 100%, 100% and 100%.
Regarding `Cc1cc(C)c(C2C(=O)CC(CCNC(=O)C(F)c3ccccc3)C2=O)c(C)c1` (centres unmarked) [Compound A50], the pest or weed control at 250 g/ha in the assay with Avena fatua (AVEFA) was determined as 70%; in assay [1], 20%; with Lolium perenne (LOLPE), 100%; in assay [2] it was 70%.
Turning to `Cc1cc(C)c(C2C(=O)CC(CCNC(=O)c3nonc3C)C2=O)c(C)c1` (centres unmarked) [Compound A51], the pest or weed control at 250 g/ha in the assay on Avena fatua (AVEFA) was found to be 90%; in assay [1], 100%; in the assay on Lolium perenne (LOLPE), 100%; in assay [2] it was 90%.
With `Cc1cc(C)c(C2C(=O)CC(CCNC(=O)c3cc4ccccc4n3C)C2=O)c(C)c1` (centres unmarked) [Compound A52], the pest or weed control at 250 g/ha in the assay with Avena fatua (AVEFA) was 70%; in assay [1] it was 70%; with Lolium perenne (LOLPE) it was 90%; in assay [2] it was 100%.
As to `Cc1cc(C)c(C2C(=O)CC(CCNC(=O)c3cscn3)C2=O)c(C)c1` (centres unmarked) [Compound A53], the pest or weed control at 250 g/ha in the assay with Avena fatua (AVEFA) was determined as 90%; in assay [1] it was 80%; in the assay on Lolium perenne (LOLPE), 100%; in assay [2], 100%.
Turning to `Cc1cc(C)c(C2C(=O)CC(CCNC(=O)c3nn(C)nc3C)C2=O)c(C)c1` (centres unmarked) [Compound A54], the pest or weed control at 250 g/ha in the assay on Avena fatua (AVEFA) came to 100%; in assay [1], 100%; with Lolium perenne (LOLPE), 100%; in assay [2], 60%.
Turning to `Cc1cc(C)c(C2C(=O)CC(CCNC(=O)c3cnccn3)C2=O)c(C)c1` (centres unmarked) [Compound A55], the pest or weed control at 250 g/ha stood at 60% in the assay with Avena fatua (AVEFA), 80% in assay [1], 90% in the assay with Lolium perenne (LOLPE) and 90% in assay [2].
For `Cc1cc(C)c(C2C(=O)CC(CCNC(=O)c3cnc(C)cn3)C2=O)c(C)c1` (centres unmarked) [Compound A56], the pest or weed control at 250 g/ha in the assay on Avena fatua (AVEFA) was found to be 90%; in assay [1], 100%; with Lolium perenne (LOLPE), 100%; in assay [2] it was 90%.
Consider `Cc1cc(C)c(C2C(=O)CC(CCNC(=O)c3ccc(C#N)cn3)C2=O)c(C)c1` (centres unmarked) [Compound A57A], for which the “Post-emergence Herbicidal Activity (% Phytotoxicity) AVEFA” value in the assay on Avena fatua (AVEFA) is on record as 90%. Besides, the “Post-emergence Herbicidal Activity (% Phytotoxicity) ALOMY” value in assay [1] is 100%. In addition, the “Post-emergence Herbicidal Activity (% Phytotoxicity) LOLPE” value in the assay on Lolium perenne (LOLPE) was 90%. For the same molecule, the “Post-emergence Herbicidal Activity (% Phytotoxicity) ECHCG” value in assay [2] is 90%.
In the case of `Cc1cc(C)c(C2C(=O)CC(CCNC(=O)c3ccc(C#N)cn3)C2=O)c(C)c1` (centres unmarked) [Compound A57], the pest or weed control at 250 g/ha (with Avena fatua (AVEFA); in assay [1]; in the assay with Lolium perenne (LOLPE); in assay [2]) was 100% in each case.
Turning to `Cc1cc(C)c(C2C(=O)CC(CCNC(=O)c3cccn3C)C2=O)c(C)c1` (centres unmarked) [Compound A58], the pest or weed control at 250 g/ha in the assay on Avena fatua (AVEFA) worked out at 30%; in assay [1] it was 50%; in the assay with Lolium perenne (LOLPE), 80%; in assay [2], 50%.
In the case of `Cc1cc(C)c(C2C(=O)CC(CCNC(=O)c3nccn3C)C2=O)c(C)c1` (centres unmarked) [Compound A59], the pest or weed control at 250 g/ha in the assay on Avena fatua (AVEFA) turned out to be 60%; in assay [1], 60%; with Lolium perenne (LOLPE), 80%; in assay [2], 30%.
In the case of `Cc1cc(C)c(C2C(=O)CC(CCNC(=O)c3cnsn3)C2=O)c(C)c1` (centres unmarked) [Compound A60], the pest or weed control at 250 g/ha with Avena fatua (AVEFA) is 90%; in assay [1], 80%; with Lolium perenne (LOLPE) it was 80%; in assay [2] it was 70%.
For the molecule `Cc1cc(C)c(C2C(=O)CC(CCNC(=O)c3cc(C)on3)C2=O)c(C)c1` (centres unmarked) [Compound A61], the pest or weed control at 250 g/ha came to 60% in the assay on Avena fatua (AVEFA), 90% in assay [1], 100% in the assay on Lolium perenne (LOLPE) and 70% in assay [2].
Taken in the same sequence, the figures for `Cc1cc(C)c(C2C(=O)CC(CCNC(=O)c3ncccc3C)C2=O)c(C)c1` (centres unmarked) [Compound A62] were 80%, 100%, 100% and 80%.
On the same counts, the results for `Cc1cc(C)c(C2C(=O)CC(CCNC(=O)c3nccc4ccccc34)C2=O)c(C)c1` (centres unmarked) [Compound A63] are 90%, 90%, 100% and 90%.
Taken in the same sequence, the figures for `Cc1cc(C)c(C2C(=O)CC(CCNC(=O)c3cccc(C)n3)C2=O)c(C)c1` (centres unmarked) [Compound A64] were 80%, 90%, 80% and 60%.
As for `COc1cc(Cl)nc(C(=O)NCCC2CC(=O)C(c3c(C)cc(C)cc3C)C2=O)c1` (centres unmarked) [Compound A65], the pest or weed control at 250 g/ha in the assay with Avena fatua (AVEFA) is 70%; in assay [1], 100%; in the assay with Lolium perenne (LOLPE), 80%; in assay [2], 80%.
For `Cc1cc(C)c(C2C(=O)CC(CCNC(=O)c3cccc(N)n3)C2=O)c(C)c1` (centres unmarked) [Compound A66], the pest or weed control at 250 g/ha in the assay on Avena fatua (AVEFA) worked out at 40%; in assay [1], 80%; in the assay on Lolium perenne (LOLPE), 60%; in assay [2] it was 70%.
On to `COc1cc(OC)nc(C(=O)NCCC2CC(=O)C(c3c(C)cc(C)cc3C)C2=O)n1` (centres unmarked) [Compound A69], for which the pest or weed control at 250 g/ha in the assay with Avena fatua (AVEFA) was 70%; in assay [1] it was 50%; in the assay on Lolium perenne (LOLPE), 60%; in assay [2] it was 30%.
With `Cc1cc(C)c(C2C(=O)CC(CCNC(=O)c3ncc(C)nc3N)C2=O)c(C)c1` (centres unmarked) [Compound A70], the pest or weed control at 250 g/ha turned out to be 90% in the assay on Avena fatua (AVEFA), 100% in assay [1], 100% in the assay on Lolium perenne (LOLPE) and 90% in assay [2].
For the molecule `Cc1cc(C)c(C2C(=O)CC(CCNC(=O)c3nc(C)oc3C(F)(F)F)C2=O)c(C)c1` (centres unmarked) [Compound A71], the pest or weed control at 250 g/ha with Avena fatua (AVEFA) came to 90%; in assay [1], 100%; with Lolium perenne (LOLPE), 100%; in assay [2], 80%.
Turning to `Cc1cc(C)c(C2C(=O)CC(CCNC(=O)c3cc(C)nn3C)C2=O)c(C)c1` (centres unmarked) [Compound A72], the pest or weed control at 250 g/ha in the assay with Avena fatua (AVEFA) came out at 90%; in assay [1] it was 90%; in the assay on Lolium perenne (LOLPE), 90%; in assay [2], 70%.
Regarding `Cc1cc(C)c(C2C(=O)CC(CCNC(=O)c3csc(C)n3)C2=O)c(C)c1` (centres unmarked) [Compound A73], the pest or weed control at 250 g/ha worked out at 90% in the assay with Avena fatua (AVEFA), 90% in assay [1], 80% with Lolium perenne (LOLPE) and 90% in assay [2].
